The record followed here is PubChem BioAssay (NCI).

Some test systems named below: HCT-15 colon; K-562 leukemia; SK-MEL-2 melanoma; UACC-62 melanoma; IGROV1 ovarian; UO-31 renal; OVCAR-3 ovarian; OVCAR-8 ovarian; MOLT-4 leukemia; OVCAR-4 ovarian.
Common to all, as to assay: NCI tumour cell line growth inhibition, 48 h

Values joined by “and” are separate entries in the source; they are usually repeats but may differ in a detail not shown here. Equal values may be shown once.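 Five concentrations, 48 hours, 96-well plates. GI50 is the concentration that inhibits growth by half. The concentration for full growth arrest is given as TGI.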 Some results are limits rather than exact numbers.

Regarding `COc1cc2nc(C)nc(N[C@H](C)c3cc(N)cc(C(F)(F)F)c3)c2cc1O[C@H]1CCOC1`, the GI50 with HCT-15 colon is 12.6 µM; in the test with K-562 leukemia, 0.489 µM; in the test on SK-MEL-2 melanoma, 18 µM; with UACC-62 melanoma it was 16.3 µM; in the test on IGROV1 ovarian it was 2.25 µM; with UO-31 renal it was 2.28 µM. Moreover, the GI50 was 15.6 µM in the test with OVCAR-3 ovarian, 15.5 µM in the test with OVCAR-8 ovarian, 12.3 µM in the test on MOLT-4 leukemia and 17 µM with OVCAR-4 ovarian. Besides, the TGI in the test on HCT-15 colon was found to be 27.6 µM; with K-562 leukemia it was 23.2 µM; in the test on SK-MEL-2 melanoma, 34.7 µM; in the test on UACC-62 melanoma, 31 µM; in the test on IGROV1 ovarian, 20.3 µM; with UO-31 renal, 17.3 µM. The TGI was 38.4 µM in the test with OVCAR-3 ovarian, 42.8 µM in the test on OVCAR-8 ovarian, 41.5 µM with MOLT-4 leukemia and 55.1 µM in the test on OVCAR-4 ovarian.

On to `CC1(C)OC(=O)C(=Cc2ccc(O)cc2)C(=O)O1`, for which the TGI in the test with HCT-15 colon, in the test with K-562 leukemia, with SK-MEL-2 melanoma, in the test with UACC-62 melanoma, with IGROV1 ovarian and in the test with UO-31 renal was above 100 µM each time. The TGI in the test on OVCAR-3 ovarian, in the test with OVCAR-8 ovarian, in the test with MOLT-4 leukemia and with OVCAR-4 ovarian was above 100 µM throughout.

Consider `CCNC1C2(CCCCC2)NC(=O)C12CCCCC2` (configuration not stated), for which the TGI in the test on HCT-15 colon, with K-562 leukemia, in the test with SK-MEL-2 melanoma, in the test on UACC-62 melanoma, in the test with IGROV1 ovarian and with UO-31 renal was above 100 µM each time. For the same compound, the TGI with OVCAR-3 ovarian, with OVCAR-8 ovarian, in the test on MOLT-4 leukemia and in the test with OVCAR-4 ovarian was above 100 µM each time.

Consider `O=C(NCCNc1nccc(-c2c(-c3cccc(O)c3)nc3sccn23)n1)c1ccccc1O`, for which the GI50 with HCT-15 colon was 4.53 µM; in the test with K-562 leukemia, 4.11 µM; in the test with SK-MEL-2 melanoma it was 1.59 µM; with UACC-62 melanoma it was 0.181 µM; in the test on IGROV1 ovarian it was 4.52 µM; in the test with UO-31 renal it was 5 µM. Moreover, the GI50 was 5.57 µM in the test on OVCAR-3 ovarian, 3.14 µM with OVCAR-8 ovarian, 4.87 µM in the test on MOLT-4 leukemia and 6.67 µM in the test on OVCAR-4 ovarian. The TGI is above 46.8 µM in the test on HCT-15 colon; above 100 µM in the test on K-562 leukemia; 6.09 µM in the test on SK-MEL-2 melanoma; 4.91 µM in the test on UACC-62 melanoma; above 73 µM in the test with IGROV1 ovarian; 19.8 µM with UO-31 renal. Besides, the TGI in the test on OVCAR-3 ovarian was 47.8 µM; in the test with OVCAR-8 ovarian, 25.4 µM; in the test on MOLT-4 leukemia it was above 52.2 µM; in the test with OVCAR-4 ovarian it was 53.6 µM.

With `COc1ccc(-c2cc(-c3ccc(Nc4nc(Nc5ccccc5)nc(Nc5ccc(Cl)cc5)n4)cc3)nc(N)c2C#N)cc1`, the GI50 is 1.2 µM in the test with HCT-15 colon; 1.52 µM with K-562 leukemia; 1.09 µM in the test on SK-MEL-2 melanoma; 1.47 µM with UACC-62 melanoma; 0.546 µM in the test on IGROV1 ovarian; 0.72 µM with UO-31 renal. The GI50 with OVCAR-3 ovarian is 0.761 µM; in the test on OVCAR-8 ovarian it was 1.81 µM; in the test with MOLT-4 leukemia, 0.958 µM; in the test on OVCAR-4 ovarian it was 1.06 µM. For the same compound, the TGI in the test with HCT-15 colon is 3.68 µM; in the test with K-562 leukemia, above 18.6 µM; in the test with SK-MEL-2 melanoma, 2.66 µM; with UACC-62 melanoma it was 6.73 µM; in the test on IGROV1 ovarian it was 1.41 µM; in the test on UO-31 renal it was 1.49 µM. For the same compound, the TGI in the test with OVCAR-3 ovarian was 1.52 µM; in the test on OVCAR-8 ovarian it was above 50 µM; with MOLT-4 leukemia, above 50 µM; with OVCAR-4 ovarian it was 3.2 µM.

As for `NC1CCC(Nc2nc(NCc3ccc(-c4ccco4)nc3)c3ncn(C4CCCC4)c3n2)CC1` (configuration not stated), the GI50 was 0.298 µM and 1.27 µM in the test with HCT-15 colon; 0.0417 µM in the test on K-562 leukemia; 0.034 µM with SK-MEL-2 melanoma; 0.0377 µM with UACC-62 melanoma; 0.0351 µM in the test with IGROV1 ovarian; 0.17 µM with UO-31 renal. The GI50 in the test with OVCAR-3 ovarian is 0.0273 µM; in the test with OVCAR-8 ovarian, 0.0431 µM; in the test with MOLT-4 leukemia it was 0.0222 µM; in the test with OVCAR-4 ovarian, 0.0307 µM. The TGI in the test on HCT-15 colon is 7.81 µM; with K-562 leukemia, 1.17 µM; in the test with SK-MEL-2 melanoma, 0.145 µM; with UACC-62 melanoma, 0.223 µM; with IGROV1 ovarian, 10.7 µM; in the test on UO-31 renal, 0.747 µM. In the test with OVCAR-3 ovarian, this compound returned a TGI of 0.0778 µM.

`CCOc1ccccc1-n1c(CN2CCN(C(=O)COc3ccc(CNCCCCCCN4C5CCCC4CC(OC(=O)Nc4cc(C)ccc4OC)C5)cc3)CC2)nc2ccccc2c1=O` (configuration not stated): the GI50 in the test with HCT-15 colon is 2.23 µM; with K-562 leukemia, 0.651 µM; with SK-MEL-2 melanoma it was 1.99 µM; in the test with UACC-62 melanoma, 1.77 µM; with IGROV1 ovarian it was 1.72 µM; in the test with UO-31 renal it was 4.07 µM. Also, the GI50 is 1.78 µM with OVCAR-3 ovarian, 1.83 µM with OVCAR-8 ovarian, 0.68 µM in the test with MOLT-4 leukemia and 1.75 µM in the test on OVCAR-4 ovarian. Besides, the TGI was 5.4 µM with HCT-15 colon; 1.36 µM with K-562 leukemia; 3.62 µM in the test on SK-MEL-2 melanoma; 3.22 µM with UACC-62 melanoma; 3.47 µM in the test with IGROV1 ovarian; 8.15 µM in the test on UO-31 renal. Also, the TGI in the test with OVCAR-3 ovarian was determined as 3.49 µM; in the test with OVCAR-8 ovarian, 3.75 µM; in the test with MOLT-4 leukemia, 1.5 µM; in the test on OVCAR-4 ovarian, 3.34 µM.
